Where two headings read alike, the source gives them in different places.
Columns and labels:
αvβ3 receptor = αvβ3 receptor (Homo sapiens, UniProt P05106+P06756); assay: Solid-phase binding assay, inhibition of [125I]Echistatin binding to αvβ3 receptor
Protocol: (§1) The receptor binding assays were performed as described (Orlando R. A., et al., J. Biol. Chem. 1991, 266, 19543). αvβ3 and αvβ5 were diluted to 500 ng/ml and 1 μg/ml, respectively, in coating buffer (20 mM Tris, pH 7.4, 150 mM NaCl, 2 mM CaCl2, 1 mM MgCl2, 1 mM MnCl2) and an aliquot of 100 μL was added to a 96-well microtiter plate and incubated overnight at 4° C. The plate was washed once with blocking/binding buffer (50 mM Tris, pH 7.4, 100 mM NaCl, 2 mM CaCl2, 1 mM MgCl2, 1 mM MnCl2, 1% bovine serum albumin), and then was incubated for additional 2 h at RT The plate was rinsed twice with the same buffer and incubated for 3 h at RT with radiolabeled ligand [^125I]Echistatin (Amersham Pharmacia Biotech) 0.05 nM (0.1 nM for αv β5) in the presence of competing inhibitors. After the incubation, the wells were washed and radioactivity was determined with a gamma-counter (Packard). Non-specific binding of ligand was determined with molar excess (200 nM) of cold echistatin.
(§2) The IC50 values reported in Tables 1 and 2 were calculated as the concentrations of compounds required for 50% inhibition of echistatin binding and were estimated by the Prism GraphPad program. The Ki of the competing ligands were calculated according to the Cheng-Prusoff equation (Cheng Y. C., et al., Biochem. Pharmacol., 1973, 22, 3099). Values are the mean±log standard error of triplicate determinations from two independent experiments.

αvβ5 receptors = αvβ5 receptors (Homo sapiens, UniProt P06756+P18084); assay: Solid-phase binding assay, inhibition of [125I]Echistatin binding to αvβ5 receptors
Protocol: as §1, §2

[1] = test system: A2780 ovarian carcinoma cells; assay: Cytotoxicity, sulphorodamine B test (A2780); assay type: cell-based, human
Protocol: (§3) To evaluate the effect of the compound on survival cells, the sulphorodamine B test was used. To measure the effects of the compounds on cell growth, PC3 human prostate carcinoma and A2780 human ovarian carcinoma cells were used. A2780 and PC3 tumour cells were grown RPMI 1640 containing 10% fetal bovine serum (GIBCO).
(§4) Tumour cells were seeded in 96-well tissue culture plates at approximately 10% confluence and were allowed to attach and recover for at least 24 h. Varying concentrations of the drugs were then added to each well to calculate their IC50 value (the concentration which inhibits the 50% of cell survival). The plates were incubated at 37° C. for 72 h. At the end of the treatment, the plates were washed by removal of the supernatant and addition of PBS 3 times. 200 μl PBS and 50 μl of cold 80% trichloroacetic acid (TCA) were added. The plates were incubated on ice for at least 1 h. TCA was removed and the plates were washed 3 times by immersion in distilled-water and dried on paper and at 40° C. for 5 min. Then 200 μl of 0.4% sulphorodamine B in 1% acetic acid were added. The plates were incubated at RT for further 30 min. Sulphorodamine B was removed, the plates were washed by immersion in 1% acetic acid 3 times, then they were dried on paper and at 40° C. for 5 min. Then 200 μl Tris 10 mM were added, the plates were kept under stirring for 20 min. The cell survival was determined by means of optical density using a Multiskan spectrofluorimeter at 540 nm. The amount of cells killed was calculated as the percentage decrease in sulphorodamine B binding compared with control cultures.
(§5) The IC50 values were calculated with the “ALLFIT” program.

[2] = test system: PC3 prostate carcinoma cells; assay: Cytotoxicity, sulphorodamine B test (PC3); assay type: cell-based, human
Protocol: as §3, §4, §5

[3] = test system: A2780 ovarian carcinoma cells; assay type: cell-based, human
Protocol: (§6) A2780 human ovarian carcinoma and PC3 prostate carcinoma cells were grown in medium culture RPMI 1640 containing 10% fetal bovine serum and 50 μg/ml gentamycin sulfate. Cells were maintained in a 37° C. incubator with saturated humidity and an atmosphere of 95% air and 5% CO2. A2780 tumour cell line expresses high levels of αvβ5 integrin, and PC3 low levels of both integrins.
(§7) In 96-well tissue culture plates, 50 μl/well of a solution of vitronectin (5 μg/ml) were added for 2 h at room temperature. The solutions were removed upsetting the plates. 50 μl/well of a solution 1% BSA were added for 1 h at RT. The plates were washed by addition of 100 μl/well of medium culture RPMI 1640 without fetal calf serum (FCS). The washing was repeated twice. The molecules were added at different concentrations in the range between 0.039 μM and 20 μM. The solutions were prepared by dilution 1:2 in medium culture without FCS. Tumour cells in the flasks were washed in saline solution before to be detached by scraper, by the addition of 5 ml of medium culture without FCS and 1% BSA. Tumour cells were counted after resuspension and added at an appropriate cellular density (40000-50000 cells/well). The plates were incubated for 1 h at 37° C. in humidified incubator with 5% CO2. Then, the solutions were removed upsetting the plates and washed once with 200 μl/well of PBS with Ca^2+ e Mg^2+. Tumour cells were fixed with 100 μl of a solution 4% paraformaldehyde in 0.2 M Sorensen phosphate buffer pH 7.2-7.4 for 10 min at RT The plates were upset and 100 μl of 1% Toluidine Blu solution were added for 10 min at RT The plates were washed twice by immersion in bi-distilled water and then dried at 60° C. in thermostat incubator (Kottermann). 100 μl/well of 1% SDS were added. The plates were kept under stirring for 20 min at RT and were then evaluated by Victor 1420 multilabel counter (Wallac) at 600 nm.
(§8) The IC50 value as parameter to measure the inhibiting effect of the molecules on tumour cell adhesion to vitronectin was evaluated using “ALLFIT” computer program.

[4] = test system: PC3 prostate carcinoma cells; assay type: cell-based, human
Protocol: as §6, §7, §8

[5] = Stability of the linker-containing conjugate in various assays; conditions: various assays conducted
Description: A number of linker-containing peptides as substrates of Cathepsin B have already been described, for example, Phe-Lys, Val-Cit (Dubowchick G. M., et al, Bioconjugate Chem., 2002, 13, 4, 855); Gly-Phe-Leu-Gly (Rejmanova P., et al, Biomaterials, 1985, 6, 1, 45); D-Ala-Phe-Lys (de Groot F. M. H., et al., Mol. Cancer. Ther., 2002, 1, 901). Some of these peptides have been successfully applied when attached to antibodies, which, due to their bulkiness, can shield them from plasma peptidases. However, when we experimented these peptide sequences applied to conjugates containing small ligands, as in the case of oligopeptides, they were immediately cleaved releasing the cytotoxic agent into the circulation, contrary to what described by other authors. […] The above cited paper from Dubowchick deals with cathepsin B-labile dipeptide ligands. The same authors also published four years before another study about the influence of the amino acid at position P2 when Cit amino acid was at P1 position, concluding that the best amino acid in such a position was Val because of hydrophobic interactions within the binding site of cathepsin B (Dubowchick G. M., et al, Bioorg. Med. Chem., 1998, 8, 3341), meanwhile the analogue containing Ala instead of Val contributed to slower noticeably the release of doxorubicin, which was clearly contrary to the objective of the study.

[6] = αvβ3, Cheng-Prusoff equation, read-out: Ki
[7] = αvβ3, [125I]Echistatin 0.05 nM, read-out: IC50 ± log SE, inhibition of [125I]Echistatin binding (converted)
[8] = αvβ5, Cheng-Prusoff equation, read-out: Ki
[9] = αvβ5, [125I]Echistatin 0.1 nM, read-out: IC50 ± log SE, inhibition of [125I]Echistatin binding (converted)
[10] = A2780, 72 h of treatment, read-out: IC50 ± SD, cytotoxicity
[11] = PC3, 72 h of treatment, read-out: IC50 ± SD, cytotoxicity
[12] = A2780, 1 h of treatment, read-out: IC50 ± SD, antiadhesive effect to vitronectin
[13] = PC3, 1 h of treatment, read-out: IC50 ± SD, antiadhesive effect to vitronectin

αvβ3 receptor, sequence (P06756 31-889 limits assumed): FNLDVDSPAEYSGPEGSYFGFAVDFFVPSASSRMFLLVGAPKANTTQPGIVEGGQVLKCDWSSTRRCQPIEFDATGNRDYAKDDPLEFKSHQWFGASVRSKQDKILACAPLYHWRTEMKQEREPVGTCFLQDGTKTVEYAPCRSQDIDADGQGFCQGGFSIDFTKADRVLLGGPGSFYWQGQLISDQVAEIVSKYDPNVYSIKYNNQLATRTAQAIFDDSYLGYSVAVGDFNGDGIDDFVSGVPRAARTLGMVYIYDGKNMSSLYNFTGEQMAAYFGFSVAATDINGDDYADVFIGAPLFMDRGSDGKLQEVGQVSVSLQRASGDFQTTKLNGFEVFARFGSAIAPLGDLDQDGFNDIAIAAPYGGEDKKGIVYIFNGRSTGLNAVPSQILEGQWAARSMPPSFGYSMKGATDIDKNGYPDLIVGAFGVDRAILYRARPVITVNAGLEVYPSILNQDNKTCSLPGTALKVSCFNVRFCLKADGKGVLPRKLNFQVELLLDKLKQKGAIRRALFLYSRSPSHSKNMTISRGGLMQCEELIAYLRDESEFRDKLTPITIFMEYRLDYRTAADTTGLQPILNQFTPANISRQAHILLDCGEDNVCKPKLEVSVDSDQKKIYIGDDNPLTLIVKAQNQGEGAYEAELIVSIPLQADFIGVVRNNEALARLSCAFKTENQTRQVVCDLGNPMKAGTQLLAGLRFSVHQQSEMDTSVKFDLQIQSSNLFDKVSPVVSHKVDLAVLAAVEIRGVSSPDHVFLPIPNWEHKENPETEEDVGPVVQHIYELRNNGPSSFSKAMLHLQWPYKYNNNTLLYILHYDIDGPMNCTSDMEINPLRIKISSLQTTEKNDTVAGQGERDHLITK
αvβ3 receptor, sequence (P06756 891-1048 partner limits assumed): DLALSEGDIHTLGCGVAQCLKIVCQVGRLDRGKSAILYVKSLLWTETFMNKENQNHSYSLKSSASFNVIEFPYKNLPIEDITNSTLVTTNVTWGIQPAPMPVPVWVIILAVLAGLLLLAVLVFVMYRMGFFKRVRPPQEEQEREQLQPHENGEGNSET
αvβ3 receptor, sequence (P05106 27-788): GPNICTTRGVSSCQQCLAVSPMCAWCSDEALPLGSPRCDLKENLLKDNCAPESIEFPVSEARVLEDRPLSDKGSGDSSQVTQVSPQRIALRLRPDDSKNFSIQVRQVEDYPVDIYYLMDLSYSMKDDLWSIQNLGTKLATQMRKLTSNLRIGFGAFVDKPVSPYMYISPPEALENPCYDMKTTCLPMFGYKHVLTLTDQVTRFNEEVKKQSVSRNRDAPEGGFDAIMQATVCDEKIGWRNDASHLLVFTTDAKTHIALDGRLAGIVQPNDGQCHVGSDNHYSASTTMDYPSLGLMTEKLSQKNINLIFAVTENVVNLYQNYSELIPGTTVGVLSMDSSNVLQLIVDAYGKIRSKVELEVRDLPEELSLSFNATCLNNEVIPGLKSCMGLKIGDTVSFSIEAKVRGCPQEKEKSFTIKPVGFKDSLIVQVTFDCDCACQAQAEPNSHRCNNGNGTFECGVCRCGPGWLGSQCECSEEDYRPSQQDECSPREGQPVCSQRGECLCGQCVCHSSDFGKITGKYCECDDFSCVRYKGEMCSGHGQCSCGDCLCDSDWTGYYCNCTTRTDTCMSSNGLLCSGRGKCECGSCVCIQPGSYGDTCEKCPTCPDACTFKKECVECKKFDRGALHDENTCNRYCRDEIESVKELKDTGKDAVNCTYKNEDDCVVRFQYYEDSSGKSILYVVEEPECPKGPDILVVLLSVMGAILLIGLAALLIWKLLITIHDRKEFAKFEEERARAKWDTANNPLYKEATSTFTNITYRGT
αvβ5 receptors, sequence (P06756 31-889 limits assumed): as the sequence (P06756 31-889 limits assumed) above
αvβ5 receptors, sequence (P06756 891-1048 partner limits assumed): as the sequence (P06756 891-1048 partner limits assumed) above
αvβ5 receptors, sequence (P18084 24-799): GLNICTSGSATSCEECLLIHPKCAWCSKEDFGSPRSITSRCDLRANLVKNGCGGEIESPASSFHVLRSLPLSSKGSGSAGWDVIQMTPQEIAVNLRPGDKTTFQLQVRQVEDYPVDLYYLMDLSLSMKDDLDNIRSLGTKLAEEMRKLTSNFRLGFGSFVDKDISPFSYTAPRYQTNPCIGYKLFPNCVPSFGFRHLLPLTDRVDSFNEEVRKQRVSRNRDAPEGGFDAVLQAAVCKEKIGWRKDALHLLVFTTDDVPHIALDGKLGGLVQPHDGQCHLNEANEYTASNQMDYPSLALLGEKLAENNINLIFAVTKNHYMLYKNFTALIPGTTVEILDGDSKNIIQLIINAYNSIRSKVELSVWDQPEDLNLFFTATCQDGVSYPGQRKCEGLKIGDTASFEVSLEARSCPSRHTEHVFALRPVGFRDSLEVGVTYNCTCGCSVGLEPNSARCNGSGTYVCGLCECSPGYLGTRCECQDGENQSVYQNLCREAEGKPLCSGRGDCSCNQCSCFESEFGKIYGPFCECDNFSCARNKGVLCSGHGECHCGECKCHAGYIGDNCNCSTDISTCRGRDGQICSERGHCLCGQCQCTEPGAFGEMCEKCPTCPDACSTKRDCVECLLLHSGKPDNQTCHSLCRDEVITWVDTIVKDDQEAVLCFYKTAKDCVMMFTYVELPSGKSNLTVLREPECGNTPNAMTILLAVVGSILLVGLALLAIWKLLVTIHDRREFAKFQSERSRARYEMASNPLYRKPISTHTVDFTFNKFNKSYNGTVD

Molecule	Ki (αvβ3 receptor; [6]) [nM]	IC50 (αvβ3 receptor; [7]) [nM]	Ki (αvβ5 receptors; [8]) [nM]	IC50 (αvβ5 receptors; [9]) [nM]	IC50 [1, 10] [nM]	IC50 [2, 11] [nM]	IC50 (αvβ3 receptor) [nM]	Ki (αvβ3 receptor) [nM]	IC50 (αvβ5 receptors) [nM]	Ki (αvβ5 receptors) [nM]	IC50 [3, 12] [nM]	IC50 [4, 13] [nM]	stability [5]	IC50 ([1]; human) [nM]	IC50 ([2]; human) [nM]	IC50 ([3]; 1 h) [nM]	IC50 ([4]; 1 h) [nM]
Echistatin [reference compound]	0.26	0.28 ± 0.08	0.33	0.29 ± 0.02	–	–	–	–	–	–	–	–	–	–	–	–	–
CC[C@@]1(O)C(=O)OCc2c1cc1n(c2=O)Cc2c-1nc1ccccc1c2C=NOCCNC(=O)OCc1ccc(NC(=O)[C@H](CCCNC(N)=O)NC(=O)[C@H](C)NC(=O)c2cn(CCOCCOCCOCCC(=O)NCc3ccc(C[C@@H]4NC(=O)[C@@H](Cc5ccccc5)NC(=O)[C@H](CC(=O)O)NC(=O)CNC(=O)[C@H](CCCNC(=N)N)NC4=O)cc3)nn2)cc1 [ST4167]	–	–	–	–	30 ± 3	1000 ± 100	11 ± 0.8	8.7	18.4 ± 0.89	13.8	670 ± 20	560 ± 70	–	–	–	–	–
CC[C@@]1(O)C(=O)OCc2c1cc1n(c2=O)Cc2c-1nc1ccccc1c2C=NOCCNC(=O)OCc1ccc(NC(=O)[C@H](CCCNC(N)=O)NC(=O)[C@H](C)NC(=O)c2cn(CCOCCOCCOCCC(=O)N[C@@H](CCCNC(N)=O)C(=O)NCCOCCOCCOCCC(=O)NCc3ccc(C[C@@H]4NC(=O)[C@@H](Cc5ccccc5)NC(=O)[C@H](CC(=O)O)NC(=O)CNC(=O)[C@H](CCCNC(=N)N)NC4=O)cc3)nn2)cc1 [ST4215]	–	–	–	–	9 ± 0.7	2500 ± 700	–	–	–	–	1700 ± 200	4600 ± 800	–	–	–	–	–
CC[C@@]1(O)C(=O)OCc2c1cc1n(c2=O)Cc2c-1nc1ccccc1c2C=NOCCNC(=O)OCc1ccc(NC(=O)[C@H](CCCCN)NC(=O)[C@H](Cc2ccccc2)NC(=O)COCCOCCOCC(=O)NCc2ccc(C[C@@H]3NC(=O)[C@@H](Cc4ccccc4)NC(=O)[C@H](CC(=O)O)NC(=O)CNC(=O)[C@H](CCCNC(=N)N)NC3=O)cc2)cc1 [ST3280]	–	–	–	–	8.4 ± 0.6	200 ± 30	9.7 ± 0.06	8.5	34.4 ± 0.8	23	2700 ± 300	1800 ± 400	highly unstable	–	–	–	–
CC[C@@]1(O)C(=O)OCc2c1cc1n(c2=O)Cc2c-1nc1ccccc1c2C=NOCCNC(=O)OCc1ccc(NC(=O)[C@H](CCCNC(N)=O)NC(=O)[C@H](C)NC(=O)COCCOCCOCC(=O)NCc2cn(CC(=O)N[C@@H](CCC(=O)NCCOCCOCCOCCC(=O)NCc3ccc(C[C@@H]4NC(=O)[C@@H](Cc5ccc(O)cc5)NC(=O)[C@H](CC(=O)O)NC(=O)CNC(=O)[C@H](CCCNC(=N)N)NC4=O)cc3)C(=O)NCCOCCOCCOCCC(=O)NCc3ccc(C[C@@H]4NC(=O)[C@@H](Cc5ccc(O)cc5)NC(=O)[C@H](CC(=O)O)NC(=O)CNC(=O)[C@H](CCCNC(=N)N)NC4=O)cc3)nn2)cc1 [ST5744TF1]	2.4	3.01 ± 0.11	2.95	3.84 ± 0.12	–	–	–	–	–	–	–	–	–	8 ± 0.5	1000 ± 20	450 ± 20	390 ± 90
